Assay results: PubChem BioAssay (NCI)
Values joined by “and” are separate entries in the source; they are usually repeats but may differ in a detail not shown here. Equal entries are not always repeated.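 A five-concentration, 48-hour dose response in 96-well plates underlies each endpoint, interpolated linearly between surrounding concentrations. GI50: concentration for 50% inhibition of growth. TGI is the concentration that stops growth completely.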

Legend:
Experiment in all cases: NCI tumour cell line growth inhibition, 48 h
DMS 114 small cell lung = tested on: DMS 114 small cell lung
HCC-2998 colon = tested on: HCC-2998 colon
HCT-15 colon = tested on: HCT-15 colon
HOP-18 NSCLC = tested on: HOP-18 NSCLC
K-562 leukemia = tested on: K-562 leukemia
M19-MEL melanoma = tested on: M19-MEL melanoma
RXF 393 renal = tested on: RXF 393 renal
SNB-78 CNS = tested on: SNB-78 CNS
NCI/ADR-RES ovarian = tested on: NCI/ADR-RES ovarian
PC-3 prostate = tested on: PC-3 prostate

Compound	TGI (DMS 114 small cell lung)	TGI (HCC-2998 colon)	TGI (HCT-15 colon)	TGI (HOP-18 NSCLC)	TGI (K-562 leukemia)	TGI (M19-MEL melanoma)	TGI (RXF 393 renal)	TGI (SNB-78 CNS)	GI50 (HCC-2998 colon)	GI50 (HCT-15 colon)	GI50 (K-562 leukemia)	GI50 (NCI/ADR-RES ovarian)	GI50 (PC-3 prostate)	GI50 (RXF 393 renal)	GI50 (DMS 114 small cell lung)	GI50 (HOP-18 NSCLC)	GI50 (M19-MEL melanoma)	TGI (NCI/ADR-RES ovarian)	TGI (PC-3 prostate)
O=c1c2ccccc2[nH]c(=S)n1-c1ccc(Br)cc1	> 100 µM	> 100 µM	> 100 µM	> 100 µM	> 100 µM	> 100 µM	> 100 µM	> 100 µM											
Cn1c2c(c3ccccc31)CCN(CCCCN1CCc3c(n(C)c4ccccc34)C1=O)C2	> 100 µM		> 100 µM	> 100 µM	> 100 µM	> 100 µM	> 100 µM	> 100 µM											
Cc1cc(C)nc(NS(=O)(=O)c2ccc(Nc3c4ccccc4nc4c(C(=O)Nc5ccc(S(=O)(=O)N=C(N)N)cc5)ccc(Cl)c34)cc2)n1	41.8 µM	38.4 µM		> 100 µM	> 100 µM	55.4 µM	38.6 µM	> 100 µM											
O=C(c1ccccc1)C(c1ccccc1)C1(O)C(=O)Nc2c(Cl)cc(Cl)cc21 (stereo not given)	33.9 µM	33.8 µM	> 100 µM	36.6 µM	50.3 µM		34.4 µM	67.4 µM											
CN1CC[C@@H](c2c(O)cc(O)c3c(=O)cc(-c4ccccc4Cl)oc23)[C@@H](O)C1	0.334 µM	0.312 µM and 0.162 µM					0.0892 µM and 0.0495 µM and 0.0428 µM	> 17.6 µM	0.137 µM and 0.0417 µM	0.0476 µM	0.212 µM and 0.145 µM	0.256 µM and 0.0763 µM	0.0655 µM and 0.0735 µM	0.0481 µM and 0.0218 µM and 0.0196 µM					
Cc1ccc(OCC(=O)N2N=C(c3ccccc3)CC2(O)c2ccccc2)cc1 (stereo not given)		> 100 µM	> 100 µM		> 100 µM	> 100 µM		51.5 µM											
O=C(c1ccccc1)C(C(=O)c1ccccc1)C1(O)C(=O)c2ccccc2C1=O		> 100 µM	> 100 µM	> 100 µM	60.6 µM	42.6 µM	0.889 µM	> 100 µM											
O=C1C(=O)N(C(=O)c2ccc(Cl)c(Cl)c2)c2ccccc21	> 100 µM			> 100 µM	> 100 µM	> 100 µM	> 100 µM	> 100 µM											
COC1=CC(=O)c2ccccc2C1(CCC=C(C)C)C1=NC(C)(C)CO1 (stereo not given)			> 100 µM	> 100 µM	> 100 µM	> 100 µM	> 100 µM												
O=C(O)c1c(-c2cccc3ccccc23)sc(-c2cccc3ccccc23)c1C(=O)O	> 100 µM	> 100 µM	> 100 µM	> 100 µM	> 100 µM	> 100 µM	> 100 µM	> 100 µM											
CC1=C(C(=O)Nc2ccccc2C)C(c2ccccc2)C(C(=O)Nc2ccccc2C)=C(C)N1	> 100 µM	> 100 µM	> 100 µM	> 100 µM	> 100 µM	> 100 µM	71.6 µM	97.4 µM											
CCOC/N=C(/N)NC#N	> 100 µM	> 100 µM	45 µM	> 100 µM	> 100 µM	> 100 µM	> 100 µM	> 100 µM											
CC[C@H](C)N(CCN)C(=O)c1cc2ccccc2c(-c2ccccc2Cl)n1	28 µM	9.06 µM	16.1 µM		12.6 µM		19.7 µM	31.6 µM											
Nc1ccn(CCOC(=O)c2ccccc2)c(=O)n1			> 100 µM	> 100 µM	> 100 µM		> 100 µM	> 100 µM											
C[C@@H]1C[C@@H](O)[C@]2(O)O[C@@H]3C[C@@]4(C=O)[C@@H](CC[C@@H]5[C@@H]4CC[C@]4(C)[C@@H](C6=CC(=O)OC6)CC[C@]54O)C[C@H]3O[C@@H]2O1	0.0094 µM and 0.0134 µM	0.582 µM and 0.134 µM	0.0605 µM and 0.25 µM		0.601 µM and 1.59 µM and 0.523 µM	0.104 µM and 0.0732 µM	0.0599 µM	0.211 µM	0.0273 µM	0.06 µM	0.0553 µM and 0.0124 µM				0.005 µM	0.005 µM	0.0125 µM	0.118 µM	0.518 µM
COc1ccc(C(=O)/C(Br)=C/C(=O)O)cc1	114 µM	76.3 µM and 51.8 µM	101 µM and 94.4 µM	139 µM	281 µM and 352 µM	106 µM	19.4 µM and 50 µM		26.6 µM	10.6 µM	18.8 µM	18.3 µM	74.5 µM	6.8 µM and 15.1 µM				387 µM and 116 µM	159 µM and 257 µM
CCc1cccc(C(C)C)c1NC(=O)C(=O)C(Cc1nc2ccccc2[nH]c1=O)C(=O)OC (stereo not given)	30.5 µM	> 100 µM	> 100 µM	> 100 µM	> 100 µM	> 100 µM	> 100 µM												
O=C(CNc1nncs1)NO	> 100 µM	> 100 µM	> 100 µM	> 100 µM	> 100 µM	> 100 µM	> 100 µM	> 100 µM											
COc1cccc2cc(C)c(C(=O)c3ccccc3)nc12	> 100 µM	> 100 µM	> 100 µM	> 100 µM	> 100 µM	> 100 µM	> 100 µM	> 100 µM											
